Experimental data taken from patent US20060183122A1, “Fanc gene mutations in cancer” (priority 2002, published 2006).
Entries after “also recorded” stand apart in the source; their conditions may differ.

Legend:
Assay type in all cases: cell-based
[1] = tested on: PL11; assay: G2/M cell cycle arrest after MMC treatment (flow cytometry); settings: MMC 2 hours, analyzed 48 hours later, arrest = twofold increase of 4N fraction vs untreated
Protocol: (§1) Cells were cultured in 25 cm^2 flasks and treated with MMC for two hours. Cells were washed with PBS and incubated with normal tissue culture medium for 48 hours.
(§2) Cells were obtained by trypsinization and resuspended in 3.7% paraformaldehyde in PBS, stained with Hoechst 33258 (Sigma), incubated at 4° C. for 10 min and analyzed using a flow cytometer. A “G2/M arrest” was defined as a twofold increase of the percentage of cells in G2/M, as compared to untreated cells.
(§3) The methods used to investigate cell “survival” upon treatment with MMC and cisplatin sum the effects of cell death, slow growth and the occurrence of a cell cycle arrest. To determine the potential contribution of an arrest, we analyzed cell cycle distributions of DNA content after MMC treatment. Six pancreatic cancer cell lines (BxPC3, MiaPaCa2, Su86.86, PL11, Hs766T and CAPAN1) and one HNSCC cell line (FaDu) were analyzed 48 hours after MMC treatment for 2 hours; a G2/M arrest was defined as a twofold increase of the fraction of cells containing 4N DNA content, as compared to untreated cells (FIG. 4). Hs766T arrested in G2/M at a MMC concentration of 100 nM, PL11 at 100 nM, CAPAN1 at 200 nM and FaDu at 500 nM, whereas control pancreatic cancer cell lines MiaPaCa2, Su86.86 and BxPC3 […] at MMC concentrations as high as 2 μM.

[2] = tested on: MiaPaCa2; assay: as above; settings: MiaPaCa2 (control line); MMC 2 hours, analyzed 48 hours later; concentrations as high as
Protocol: as §1, §2, §3

[3] = tested on: CAPAN1; assay: as above; settings: MMC 2 hours, analyzed 48 hours later, arrest = twofold increase of 4N fraction vs untreated
Protocol: as §1, §2, §3

[4] = tested on: Hs766T; assay: as above; settings: MMC 2 hours, analyzed 48 hours later, arrest = twofold increase of 4N fraction vs untreated
Protocol: as §1, §2, §3

[5] = tested on: BxPC3; assay: as above; settings: BxPC3 (control line); MMC 2 hours, analyzed 48 hours later; concentrations as high as
Protocol: as §1, §2, §3

[6] = tested on: Su86.86; assay: as above; settings: Su86.86 (control line); MMC 2 hours, analyzed 48 hours later; concentrations as high as
Protocol: as §1, §2, §3

[7] = tested on: FaDu; assay: as above; settings: MMC 2 hours, analyzed 48 hours later, arrest = twofold increase of 4N fraction vs untreated
Protocol: as §1, §2, §3

[8] = tested on: CAPAN1; assay: Survival study, manual (hemacytometer) cell counts; settings: manual cell counts after 3-4 population doublings (FIG. 3C)
Protocol: (§4) Cell counts: 1×10^5 cells were plated in tissue culture flasks (25 cm^2). The next day, the medium was substituted with MMC-containing medium (range 0-4.5 μM). Cells were counted after 3-4 population doublings (4-7 days) using a hemacytometer. Four experiments per cell line/concentration were done.
(§5) To confirm the results obtained with the Picogreen assay, we also assessed sensitivity to MMC of the cell lines MiaPaCa2, Su86.86, CAPAN1 and Hs766T with manual (hemacytometer) cell counts. This assay confirmed their hypersensitivity to MMC (FIG. 3C). The FA-defective HNSCC cell line FaDu was also hypersensitive to MMC (FIG. 3D), but not to cisplatin (FIG. 3E), as compared to the FA-proficient HNSCC cell lines A-253 and Detroit 562.

[9] = tested on: Hs766T; assay: Survival study, manual (hemacytometer) cell counts; settings: manual cell counts after 3-4 population doublings (FIG. 3C)
Protocol: as §4, §5

[10] = tested on: FaDu (FA-defective); assay: Survival study, Picogreen DNA quantitation
[11] = tested on: PL11 (FANCC-mutated); assay: Survival study, Picogreen DNA quantitation
Protocol: (§6) Cells were incubated for a period of time long enough to allow non-treated cells to reach at least a threefold increase in fluorescence as compared to day 1 (3-7 days). Medium was changed every 48 hours. Cells were washed with PBS, and lysed in 100 μL sterile water. After 1 hour, 100 μl 0.5% Picogreen (Molecular Probes, Eugene, Oreg.) in tris-EDTA buffer was added to each well. After 45 minutes, wells were read in a fluorometer. Survival was calculated as a percentage; the wells without drugs were considered as 100 percent. Each experiment was done in duplicate; at least six experiments per cell line per concentration were performed.
(§7) The FA-defective pancreatic cancer cell lines Hs766T (FANCG-mutated), PL11 (FANCC-mutated) and CAPAN1 (BRCA2-mutated) and FA-proficient cell lines Su86.86 and MiaPaCa2 were treated with various concentrations of either MMC or cisplatin, and incubated in 96-well plates. Relative cell numbers were determined by measurement of doublestranded DNA content using Picogreen; wells containing no compound were used as controls. […] The FA-defective cell lines

[12] = tested on: Hs766T (FANCG-mutated); assay: Survival study, Picogreen DNA quantitation
Protocol: as §6, §7

[13] = tested on: CAPAN1 (BRCA2-mutated); assay: Survival study, Picogreen DNA quantitation
Protocol: as §6, §7

[14] = tested on: Su86.86; assay: Survival study, Picogreen DNA quantitation; settings: compared to MiaPaCa2, less sensitive than CAPAN1 and PL11
Protocol: as §6, §7

[15] = 3-7 days, compared to MiaPaCa2 and Su86.86 (FIG. 3A)

| Compound | MMC concentration at which cells arrested in G2/M [1] [nM] | MMC concentration at which cells arrested in G2/M [2] [µM] | MMC concentration at which cells arrested in G2/M [3] [nM] | MMC concentration at which cells arrested in G2/M [4] [nM] | MMC concentration at which cells arrested in G2/M [5] [µM] | MMC concentration at which cells arrested in G2/M [6] [µM] | MMC concentration at which cells arrested in G2/M [7] [nM] | Sensitivity to MMC [8] | Sensitivity to MMC [9] | Sensitivity to MMC ([10]; compared to A-253 and Detroit 562 (FIG. 3D)) | Sensitivity to MMC [11, 15] | Sensitivity to MMC [12, 15] | Sensitivity to MMC [13, 15] | Hypersensitive to cisplatin ([10]; compared to A-253 and Detroit 562 (FIG. 3E)) | Sensitivity to cisplatin ([11]; 3-7 days (FIG. 3B)) | Sensitivity to cisplatin ([12]; compared to MiaPaCa2, less sensitive than CAPAN1 and PL11) | Sensitivity to cisplatin ([13]; 3-7 days (FIG. 3B)) | Sensitivity to cisplatin [14] |
| --- | --- | --- | --- | --- | --- | --- | --- | --- | --- | --- | --- | --- | --- | --- | --- | --- | --- | --- |
| CO[C@@]12[C@H](COC(N)=O)C3=C(C(=O)C(C)=C(N)C3=O)N1C[C@@H]1N[C@@H]12 [MMC, mitomycin C] | 100 | 2 | 200 | 100 | 2 | 2 | 500 | hypersensitivity | hypersensitivity | hypersensitive | hypersensitive; also recorded: increased sensitivity | hypersensitive; also recorded: increased sensitivity | hypersensitive; also recorded: increased sensitivity | – | – | – | – | – |
| N.N.[Cl][Pt][Cl] [cisplatin] | – | – | – | – | – | – | – | – | – | – | – | – | – | not | hypersensitive | increased sensitivity | hypersensitive | increased sensitivity |
